Patent US11008346B2, “Beta-lactamase inhibitors” (priority 2014, dated 2021)
Like-named read-outs stand apart in the source and are kept apart here.

What was measured:
[1] = target: T1, KPC-2 β-lactamase (Klebsiella pneumoniae, UniProt Q9F663); assay: β-lactamase enzyme inhibition, KPC-2; format: biochemical
T1 construct: made in house; host or cells: E. coli BL21(DE3)
Experimental: (§1) For SHV-5, Kpc-2, p99AmpC and OXA-1 β-lactamases, E. coli BL21(DE3) bacterial cells carrying expression plasmids (expressed as native untagged proteins) for the individual β-lactamases were grown in 1 L of Superbroth (Teknova Inc. Hollister, Calif.) supplemented with 100 μg/ml kanamycin selection and 1×5052 (0.5% glycerol, 0.05% glucose and 0.2% α-lactose) at 35° C. for 18-20 hours. Cells were harvested by centrifugation (4,000×g, 4° C., 20 min), resuspended in 50 ml of 10 mM HEPES pH 7.5 ( 1/20 of the initial volume). The cells were lysed by sonication (5 pulses of 45 seconds) at 45 W on ice. The lysates were clarified by centrifugation at 10,000×g for 40 minutes at 4° C. Samples were diluted 5-fold in 50 mM sodium acetate pH 5.0, stored overnight at 4° C., after which they were centrifuged at 10,000×g for 30 minutes to clarify, and filtered through 0.45 μm filters. The samples were loaded onto a 5 ml Capto S sepharose cation exchange column (GE Healthcare) pre-equilibrated with 50 mM sodium acetate pH 5.0. The column was washed with 5 column volumes of 50 mM sodium acetate pH 5.0 to wash out unbound protein and a linear gradient of NaCl (0 to 500 mM) was used to elute the protein (over 16 CV) from the column. Fractions were assayed for […] activity using Centa (Calbiochem, Gibbstown, N.J.) or Nitrocefin (EMD Millipore chemicals, Darmstadt, Germany) as a reporter β-lactamase substrate for activity in the isolated fractions. Active fractions were pooled, concentrated and further purified by gel filtration chromatography on a Superdex 75 prep grade gel filtration column (GE Healthcare, Piscataway, N.J.) pre-equilibrated in 50 mM Hepes pH 7.5, 150 mM NaCl. Active fractions were pooled, concentrated, and quantitated by BCA protein determination (Thermo Scientific, Rockford, Ill.), dialyzed into PBS and frozen at −80° C. in 20% glycerol until use.
(§2) An equal volume of diluted enzyme stock was added, and the plates were incubated at 37° C. for 15 min. Nitrocefin was used as substrate for p99 AmpC, VIM-2 and OXA-1 and dispensed into each well at a final concentration of 100 μM. Absorbance at 486 nm was immediately monitored for 10 min using a Biotek Powerwave XS2 microplate spectrophotometer using the GEN5 software package (Biotek Instruments, Winooski Vt.). In an analogous fashion, imipenem was used as substrate for KPC-2 and Cefotaxime was used for SHV-5, while changes in absorbance upon hydrolysis of the β-lactam ring were monitored at 300 nm and 260 nm respectively in UV-transparent 96-well microtiter assay plates. Maximum rates of hydrolysis were compared to those in control wells (without inhibitors), and percentages of enzyme inhibition were calculated for each concentration of inhibitor. The concentration of inhibitor needed to reduce the initial rate of hydrolysis of substrate by 50% (IC50) was calculated as the residual activity of β-lactamase at 486 nm using GraFit version 7 kinetics software package (Erithacus Software, Surrey, UK).
(§3) Using the methodology described above, examples of the current invention were evaluated for their ability to inhibit β-lactamase enzymes from all four Ambler classifications (A through D). […] NT=Not tested.

[2] = target: T2, SHV-5 β-lactamase (Klebsiella pneumoniae, UniProt P0A3M1); assay: β-lactamase enzyme inhibition, SHV-5; format: biochemical
T2 construct: made in house; host or cells: E. coli BL21(DE3)
T2 sequence (P0A3M1 22-286): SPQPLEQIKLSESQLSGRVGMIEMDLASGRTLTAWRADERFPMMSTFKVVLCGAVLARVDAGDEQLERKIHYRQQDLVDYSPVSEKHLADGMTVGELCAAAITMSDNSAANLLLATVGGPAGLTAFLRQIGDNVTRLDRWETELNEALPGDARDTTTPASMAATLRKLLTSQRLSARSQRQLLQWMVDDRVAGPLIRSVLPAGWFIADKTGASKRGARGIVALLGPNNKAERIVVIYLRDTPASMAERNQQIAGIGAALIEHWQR
Experimental: as §1, §2, §3

[3] = target: T3, VIM-2 metallo β-lactamase (Pseudomonas aeruginosa, UniProt Q9K2N0); assay: β-lactamase enzyme inhibition, VIM-2; format: biochemical; settings: Nitrocefin 100 μM, 486 nm; 15 min at 37° C. preincubation; read-out: IC50 VIM-2 (Class B)
T3 construct: made in house; host or cells: E. coli BL21(DE3)
Experimental: For VIM-2 metallo β-lactamase, the procedure was identical with the following exceptions, first the protein was not pH adjusted to pH 5 with 50 mM sodium acetate. Second, the chromatography step was changed to a 5 ml Q sepharose anion exchange column pre-equilibrated with 50 mM Hepes pH 7.5, and elution of the protein was achieved by a linear gradient of NaCl (0-600 mM). Finally, the VIM-2 purification required a second run (3rd step) on the Q sepharose anion exchange column to achieve acceptable purity (>90%).
as §2, §3

[4] = target: T4, p99 AmpC β-lactamase (Enterobacter cloacae, UniProt P05364); assay: β-lactamase enzyme inhibition, p99 AmpC; format: biochemical
T4 construct: made in house; host or cells: E. coli BL21(DE3)
T4 sequence (P05364 21-381): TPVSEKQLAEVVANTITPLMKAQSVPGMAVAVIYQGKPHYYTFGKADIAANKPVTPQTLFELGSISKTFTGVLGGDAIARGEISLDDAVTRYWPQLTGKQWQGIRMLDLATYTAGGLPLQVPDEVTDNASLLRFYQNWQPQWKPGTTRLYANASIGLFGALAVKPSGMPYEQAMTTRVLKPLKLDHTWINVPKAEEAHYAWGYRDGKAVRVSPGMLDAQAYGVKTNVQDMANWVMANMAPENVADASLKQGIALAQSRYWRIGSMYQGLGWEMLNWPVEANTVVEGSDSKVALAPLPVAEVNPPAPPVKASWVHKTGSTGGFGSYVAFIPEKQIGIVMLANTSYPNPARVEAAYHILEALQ
Experimental: as §1, §2
Using the methodology described above, examples of the current invention were evaluated for their ability to inhibit β-lactamase enzymes from all four Ambler classifications (A through D).

[5] = system: E. cloacae 144200 expressing Class C P99 AmpC; assay: broth microdilution MIC, E. cloacae P99; format: cell-based; settings: Fixed CAZ (ceftazidime) 4 μg/mL
From the text: (§4) To determine the ability of test compounds to potentiate the inhibition of the growth of bacterial strains that produce beta-lactamase enzymes, classic cell based broth microdilution MIC assays were employed. Six bacteria strains producing beta-lactamase enzymes were used: E. coli expressing the Class A Extended Spectrum Beta-Lactamase (ESBL) CTX-M-15, E. cloacae expressing the Class C P99, K. pneumoniae expressing the Class A carbapenemase KPC-3, P. aeruginosa expressing the Class B carbapenemase VIM-2, K pneumoniae expressing the class A carbapenemase KPC-2 and the class B carbapenemase VIM-4, and S. aureus producing the Class A penicillinase PC-1. The assay was conducted in Cation Adjusted Mueller Hinton Broth (CAMHB, BD #212322, BD Diagnostic Systems, Sparks, Md.). Bacteria strains were grown for 3-5 hours in CAMBH broth. Test compounds were added to a microtiter plate in 2-fold serial dilutions in CAMHB in a final concentration range of 32 μg/mL to 0.25 μg/ml. An overlay of CAMHB containing a Beta-lactam was added to the compounds at a final static concentration of 4 μg/ml. […] In addition to the titration of test compounds the MICs of a panel of control beta-lactams is also tested to ensure the strains are behaving consistently from test to test. Once the test compound and antibiotics are added the plates can be inoculated according to CLSI broth microdilution method. After inoculation the plates are incubated for 16-20 hours at 37° C., then the Minimal Inhibitory Concentration (MIC) of the test compound is determined visually.
(§5) Using the methodology described above, examples of the current invention were evaluated for their ability to inhibit the growth of β-lactamase-producing bacteria in the presence of a β-lactam antibiotic.
(§6) Representative results are shown in Table 4 where A represents an MIC of the fixed β-lactam antibiotic in the presence of >32 µg/mL of a β-lactamase inhibitor of exemplary compounds, B represents the MIC in the presence of between 8 and 32 µg/mL of a β-lactamase inhibitor of exemplary compounds, and C represents the MIC in the presence of ≤4 µg/mL of a β-lactamase inhibitor of exemplary compounds. NT=Not Tested.

[6] = system: E. coli ESBL4 expressing CTX-M-15; assay: broth microdilution MIC, E. coli CTX-M-15; format: cell-based; settings: Fixed CAZ (ceftazidime) 4 μg/mL
From the text: as §4, §5, §6

[7] = target: T5, OXA-1 β-lactamase (Escherichia coli, UniProt P13661); assay: β-lactamase enzyme inhibition, OXA-1; format: biochemical; settings: Nitrocefin 100 μM, 486 nm; 15 min at 37° C. preincubation; read-out: IC50 OXA-1 (Class D)
T5 construct: made in house; host or cells: E. coli BL21(DE3)
T5 sequence (P13661 26-276): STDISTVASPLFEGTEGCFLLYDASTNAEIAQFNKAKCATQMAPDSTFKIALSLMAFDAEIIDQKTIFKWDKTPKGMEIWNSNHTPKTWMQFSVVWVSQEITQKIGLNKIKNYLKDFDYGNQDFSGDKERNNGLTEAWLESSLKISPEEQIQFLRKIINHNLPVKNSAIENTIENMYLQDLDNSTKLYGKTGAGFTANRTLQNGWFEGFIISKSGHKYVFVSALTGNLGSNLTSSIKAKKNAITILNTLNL
Experimental: as §1, §2, §3

[8] = system: K. pneumoniae 156319 expressing KPC-3; assay: broth microdilution MIC, K. pneumoniae KPC-3; format: cell-based; settings: Fixed Mero (meropenem) 4 μg/mL
From the text: as §4, §5, §6

[9] = system: K. pneumoniae A-1797 expressing KPC-2 and VIM-4; assay: broth microdilution MIC, K. pneumoniae KPC-2 and VIM-4; format: cell-based; settings: Fixed Mero (meropenem) 4 μg/mL
From the text: as §4, §5, §6

[10] = imipenem substrate, 300 nm, 15 min at 37° C. preincubation, read-out: IC50 KPC-2 (Class A)

T1 sequence (Q9F663 25-293, looked up): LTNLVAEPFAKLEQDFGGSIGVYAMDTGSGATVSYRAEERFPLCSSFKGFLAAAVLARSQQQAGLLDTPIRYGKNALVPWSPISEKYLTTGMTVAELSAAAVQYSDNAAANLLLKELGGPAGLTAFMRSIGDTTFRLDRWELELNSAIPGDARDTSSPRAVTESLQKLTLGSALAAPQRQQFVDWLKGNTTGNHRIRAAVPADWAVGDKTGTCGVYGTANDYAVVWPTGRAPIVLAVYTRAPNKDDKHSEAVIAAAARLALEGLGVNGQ

Compound	IC50 [1, 10]	IC50 [2]	IC50 [3]	IC50 [4]	MIC of exemplary compounds in presence of fixed β-lactams, E. cl. 144200 p99 AmpC [5]	MIC of exemplary compounds in presence of fixed β-lactams, E. coli ESBL4 CTX-M-15 [6]	IC50 [7]	MIC of exemplary compounds in presence of fixed β-lactams, K.P. 156319 KPC-3 [8]	MIC of exemplary compounds in presence of fixed β-lactams, K.P. A-1797 KPC-2 VIM-4 [9]	IC50 [1]
NC(=O)NCC(=O)N[C@H]1Cc2cccc(C(=O)O)c2OB1O [Example 36, (R)-2-Hydroxy-3-(2-ureido-acetylamino)-3,4-dihydro-2H-benzo[e][1,2]oxaborinin-8-carboxylic acid]	100 to 1000 nM	< 100 nM	100 to 1000 nM	< 100 nM	C (C represents the MIC in the presence of ≤4 g/mL of a β-lactamase inhibitor)	C (C represents the MIC in the presence of ≤4 g/mL of a β-lactamase inhibitor)	< 100 nM	C (C represents the MIC in the presence of ≤4 g/mL of a β-lactamase inhibitor)	C (C represents the MIC in the presence of ≤4 g/mL of a β-lactamase inhibitor)	–
C#CCCC(=O)N[C@H]1Cc2cccc(C(=O)O)c2OB1O [Example 37, (R)-2-Hydroxy-3-pent-4-ynoylamino-3,4-dihydro-2H-benzo[e][1,2]oxaborinine-8-carboxylic acid]	–	< 100 nM	1000 to 10000 nM	< 100 nM	C (C represents the MIC in the presence of ≤4 g/mL of a β-lactamase inhibitor)	C (C represents the MIC in the presence of ≤4 g/mL of a β-lactamase inhibitor)	< 100 nM	C (C represents the MIC in the presence of ≤4 g/mL of a β-lactamase inhibitor)	B (B represents the MIC in the presence of between 8 and 32 g/mL of a β-lactamase inhibitor)	< 100 nM
CC(=O)CCC(=O)N[C@H]1Cc2ccc(F)c(C(=O)O)c2OB1O [Example 47, (R)-7-Fluoro-2-hydroxy-3-(4-oxo-pentanoylamino)-3,4-dihydro-2H-benzo[e][1,2]oxaborinine-8-carboxylic acid]	< 100 nM	< 100 nM	< 100 nM	< 100 nM	C (C represents the MIC in the presence of ≤4 g/mL of a β-lactamase inhibitor)	C (C represents the MIC in the presence of ≤4 g/mL of a β-lactamase inhibitor)	< 100 nM	C (C represents the MIC in the presence of ≤4 g/mL of a β-lactamase inhibitor)	C (C represents the MIC in the presence of ≤4 g/mL of a β-lactamase inhibitor)	–
CC(C)(C)C(=O)CCC(=O)N[C@H]1Cc2cccc(C(=O)O)c2OB1O [Example 40, (R)-3-(5,5-Dimethyl-4-oxo-hexanoylamino)-2-hydroxy-3,4-dihydro-2H-benzo[e][1,2]oxaborinine-8-carboxylic acid]	< 100 nM	< 100 nM	1000 to 10000 nM	< 100 nM	C (C represents the MIC in the presence of ≤4 g/mL of a β-lactamase inhibitor)	C (C represents the MIC in the presence of ≤4 g/mL of a β-lactamase inhibitor)	< 100 nM	B (B represents the MIC in the presence of between 8 and 32 g/mL of a β-lactamase inhibitor)	B (B represents the MIC in the presence of between 8 and 32 g/mL of a β-lactamase inhibitor)	–
CS(=O)(=O)NCCC(=O)N[C@H]1Cc2ccc(F)c(C(=O)O)c2OB1O [Example 48, (R)-7-Fluoro-2-hydroxy-3-(3-methanesulfonylamino-propionylamino)-3,4-dihydro-2H-benzo[e][1,2]oxaborinine-8-carboxylic acid]	< 100 nM	< 100 nM	100 to 1000 nM	< 100 nM	C (C represents the MIC in the presence of ≤4 g/mL of a β-lactamase inhibitor)	C (C represents the MIC in the presence of ≤4 g/mL of a β-lactamase inhibitor)	< 100 nM	C (C represents the MIC in the presence of ≤4 g/mL of a β-lactamase inhibitor)	B (B represents the MIC in the presence of between 8 and 32 g/mL of a β-lactamase inhibitor)	–
O=C(CCNS(=O)(=O)C(F)(F)F)N[C@H]1Cc2cccc(C(=O)O)c2OB1O [Example 52, (R)-2-Hydroxy-3-(3-trifluoromethanesulfonylamino-propionylamino)-3,4-dihydro-2H-benzo[e][1,2]oxaborinine-8-carboxylic acid]	< 100 nM	< 100 nM	1000 to 10000 nM	< 100 nM	C (C represents the MIC in the presence of ≤4 g/mL of a β-lactamase inhibitor)	C (C represents the MIC in the presence of ≤4 g/mL of a β-lactamase inhibitor)	< 100 nM	B (B represents the MIC in the presence of between 8 and 32 g/mL of a β-lactamase inhibitor)	B (B represents the MIC in the presence of between 8 and 32 g/mL of a β-lactamase inhibitor)	–
